Laboratory results reported in patent US6331547A, “Water soluble SDZ RAD esters” (American Home Products Corporation, priority 2000, dated 2001).
≈ marks a conversion by molar mass, not a printed value.

Tests used:
U87MG Human Glioblastoma = experiment: U87MG human glioblastoma 3H thymidine incorporation; assay type: cell-based
Description: U87MG Human Glioblastoma (ATCC # HTB-14)
3H Thymidine Incorporation Protocol
BRL Minimum Essential Medium with Earle Salts (500 ml)
+5 mLBRL MEM Non-Essential Amino Acids (10 mM)
+5 mLBRL Penicillin-Streptomycin
+5 mLBRL Na Pyruvate Solution (100 mM)
+5 mLBRL L-Glutamine 200 mM
+50 mLBRL Fetal Bovine Serum (Qualified)
1. Cells were trypsinized and plated at a concentration of 10^4 cells/well in a final volume of 200 μl growth medium in 96-well flat bottom plates and allowed to adhere for 24 hours at 37° C.
2. The media was removed by aspiration with care to not disturb the cell monolayer. 200 μl of fresh growth media was added per well, allowing enough wells for samples to be run in triplicate. Compounds were added in 10 μl PBS solutions and incubated for another 48 hours at 37° C.
3. During the last 5 hours of incubation, plates were labeled with 1 μCi 3H thymidine per well. (NEN thymidine, catalog # NET-027, 6.7 Ci/mmole). The 1 μCi was added in 10 μl of PBS (on the day of harvest.). The plates were returned to the incubator for the last 5 hours.
4. The radioactive media was removed by aspiration, with care not to disturb the cell monolayer. 50 μl of BRL 10×Trypsin was added to each well, followed by incubation at 37° C. for 10 minutes or until the monolayer was loosened from the well bottom. […] Mats were counted in a Wallac Betaplate counter.

Candida albicans = settings: particularly against Candida albicans, both in vitro and in vivo; cited from earlier work
[1] = alone; U.S. Pat. No. 4,885,171; cited from earlier work
[2] = test system: experimental allergic encephalomyelitis model; settings: model for multiple sclerosis; cited from earlier work
adjuvant arthritis model = settings: model for rheumatoid arthritis; cited from earlier work
IgE-like antibodies = settings: in vivo; cited from earlier work
[3] = U.S. Pat. No. 5,665,772; cited from earlier work

| IC50 (U87MG Human Glioblastoma; 3H thymidine incorporation, 48 hours incubation, 37° C., U87MG) | Structure (SMILES) | IC50 (U87MG Human Glioblastoma; Homo sapiens, U-87 MG) | antifungal activity (Candida albicans) | antitumor activity [1] | effect in the experimental allergic encephalomyelitis model [2] | effect in the adjuvant arthritis model (adjuvant arthritis model) | inhibition of the formation of IgE-like antibodies (IgE-like antibodies) | immunosuppressive activity in animal model [3] |
| --- | --- | --- | --- | --- | --- | --- | --- | --- |
|  | CO[C@H]1C[C@@H]2CC[C@@H](C)[C@@](O)(O2)C(=O)C(=O)N2CCCC[C@H]2C(=O)O[C@H]([C@H](C)C[C@@H]2CC[C@@H](O)[C@H](OC)C2)CC(=O)[C@H](C)/C=C(\C)[C@@H](O)[C@@H](OC)C(=O)[C@H](C)C[C@H](C)/C=C/C=C/C=C/1C [Rapamycin] | 0.5 ng/mL (≈ 0.547 nM) | found to have antifungal activity | shown to have antitumor activity | effective | effective | effectively inhibited |  |
| 2.0 ng/mL (≈ 2.09 nM) | CO[C@H]1C[C@@H]2CC[C@@H](C)[C@@](O)(O2)C(=O)C(=O)N2CCCC[C@H]2C(=O)O[C@H]([C@H](C)C[C@@H]2CC[C@@H](OCCO)[C@H](OC)C2)CC(=O)[C@H](C)/C=C(\C)[C@@H](O)[C@@H](OC)C(=O)[C@H](C)C[C@H](C)/C=C/C=C/C=C/1C [SDZ-RAD, 40-O-(2-hydroxy)ethyl-rapamycin] |  |  |  |  |  |  | has immunosuppressive activity |
